Measurements as given in patent US10130714B2 (priority 2012, dated 2018).
Entries after “also recorded” stand apart in the source; their conditions may differ. Read-outs that look alike come from different tables or passages of the source.

What was measured:
[1] = molecular target: neuraminidase of influenza A/WSN/1933 (H1N1) virus (Influenza A virus, UniProt P03470); experiment: biochemical; type: biochemical
[2] = system: A/WSN/1933 (H1N1) virus; experiment: Cytopathic prevention assay in MDCK cells, H1N1; type: cell-based, influenza A/WSN/1933 (H1N1); conditions: for anti-influenza activity (in words): H1N1 virus
Procedure: The cytopathic prevention assays in Madin-Darby canine kidney (MDCK) cells were conducted to evaluate the anti-influenza activity. To our anticipation, the ZA-7-conjugates were potent inhibitors against human H1N1 virus (Table 2). The ZA-1-conjugates 9-12 also resumed anti-influenza activity in the cell-based assays. […] The anti-influenza activity could not be caused by caffeic esters alone. (Salomon, R. et al. Proc. Natl. Acad. Sci. U.S.A. 2007, 104, 12479)
The anti-flu activities of neuraminidase inhibitors were measured by the EC50 values that were the concentrations of NA inhibitor for 50% protection of the H1N1 CPE activities. Fifty μL diluted H1N1 at 100 TCID50 were mixed with equal volumes of NA inhibitors at varied concentrations. The mixtures were used to infect 100 μL of MDCK cells at 1×10^5 cells/mL in 96-wells. After 48 h incubation at 37° C. under 5.0% CO2, the cytopathic effects (CPE) were determined with CellTiter 96® AQueous Non-Radioactive Cell Proliferation Assay reagent as described above. Inhibitor EC50 value were determined by fitting the curve of percent CPE versus the concentrations of NA inhibitor using Graph Pad Prism 4.

[3] = system: influenza A/Cal/07/2009 H1N1; parameters: species or system BALB/c mice; conditions: mouse, in vivo
[4] = system: NIBRG-14 (A/VietNam/1194/2004) H5N1; type: in vivo, BALB/c mice; conditions: for survival of H5N1 infected mice (in words): 12 μmol/kg/day intranasal, 10 LD50 NIBRG-14, FIG. 17A/17B
[5] = system: recombinant NIBRG-14 (A/Viet Nam/1194/2004) H5N1 virus; experiment: microbe, parasite or virus in culture; type: cell-based, avian H5N1 influenza virus; conditions: for EC50: Influenza A virus, H5N1, read-out: EC50 against avian H5N1 virus
[6] = system: mRNA encoding IL-6 in LPS-activated RAW264.7 cells; type: cell-based
[7] = system: mRNA encoding TNF-α in LPS-activated RAW264.7 cells; type: cell-based
[8] = system: IL-6; parameters: species or system mice; conditions: mouse, in vivo
[9] = system: IFN-γ; parameters: species or system mice; conditions: mouse, in vivo
[10] = humans; cited from earlier work
[11] = Sprague Dawley, rat
[12] = A/WSN/1933 (H1N1) virus, table data are ranges or single assay results, read-out: EC50 (nM), anti-influenza activity
[13] = Influenza A virus, MDCK, A/WSN/1933 (H1N1) virus, table data are ranges or single assay results, read-out: EC50 (nM), anti-influenza activity

neuraminidase of influenza A/WSN/1933 (H1N1) virus, sequence (P03470 whole entry, looked up): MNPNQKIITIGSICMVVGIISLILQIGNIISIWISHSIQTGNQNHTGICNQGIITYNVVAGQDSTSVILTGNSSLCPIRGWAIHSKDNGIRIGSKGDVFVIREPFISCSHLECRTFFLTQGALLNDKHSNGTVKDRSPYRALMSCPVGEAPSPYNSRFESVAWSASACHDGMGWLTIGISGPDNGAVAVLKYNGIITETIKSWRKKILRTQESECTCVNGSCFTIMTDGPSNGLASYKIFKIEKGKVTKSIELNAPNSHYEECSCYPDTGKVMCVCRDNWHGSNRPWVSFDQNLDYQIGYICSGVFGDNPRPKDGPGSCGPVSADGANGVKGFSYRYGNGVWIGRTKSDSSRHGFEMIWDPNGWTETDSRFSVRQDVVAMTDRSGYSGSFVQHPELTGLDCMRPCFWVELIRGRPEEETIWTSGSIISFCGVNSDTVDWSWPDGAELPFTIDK

In the case of `CC(=O)NC1C(NC(=N)N)C=C(C(=O)O)OC1C(OC(=O)NCCCNC(=O)C=Cc1ccc(O)c(O)c1)C(O)CO` (centres unmarked) [ZA-7-CA-amide (7)], the IC50 [1] is reported as 41.3 to 60.3 nM, the EC50 [2, 12] is reported as 5.9 nM and the EC50 [2, 13] is reported as 5.1 nM. The “survival at day 14” value [3] was 50%, the “survival at day 14 / protection from virus-induced death” value [3] was 100% and the “survival rate of H1N1 infected mice (in words)” value [3] was “did not improve the survival rate”. The “survival rate of H5N1 infected mice (in words)” value ([4]; 1.2 μmol/kg/day intranasal, FIG. 17B) was “improved survival rate” and the “survival of H5N1 infected mice (in words)” value [4] was “greater potency”.
`O=C(O)c1ccc2ccccc2c1O` [HNAP, 1-hydroxy-2-naphthoic acid, reference compound] gave an EC50 [2, 13] greater than 100000 nM.
For `CC(=O)NC1C(NC(=N)N)C=C(C(=O)O)OC1C(OC(=O)NCCCO)C(O)CO` (centres unmarked) [ZA-7-HP (6), 5-Acetylamino-6-[2,3-dihydroxy-1-(3-hydroxypropylcarbamoyloxy)propyl]-4-guanidino-5,6-dihydro-4H-pyran-2-carboxylic acid], the IC50 [1] was 11.7 to 19.8 nM and the EC50 [5] was 0.82 µM.
Work on `CC(=O)NC1C(NC(=N)N)C=C(C(=O)O)OC1C(OC(=O)NCCCOC(=O)c1ccc2ccccc2c1O)C(O)CO` (centres unmarked) [ZA-7-HNAP (4)] yielded an IC50 [1] of 0.7 to 3.6 nM and an EC50 [2, 13] of 50 to 168 nM.
Compound `CC(=O)NC1C(NC(=N)N)C=C(C(=O)OCCCOC(=O)C=Cc2ccc3c(c2)OCO3)OC1C(O)C(O)CO` (centres unmarked) [ZA-1-MCA (10)] has an IC50 [1] of 3990 nM and an EC50 [2, 13] of 28 nM.
In the case of `O=C(O)/C=C/c1ccc(O)c(O)c1` [CA, caffeic acid, reference compound], the “NA inhibitory activity (in words)” value [1] is reported as “did not exhibit any NA inhibitory activity”, the EC50 [2, 13] is reported as greater than 100000 nM and the “survival of H1N1 infected mice (in words)” value [3] is reported as “all the mice died at day 12”. The “mRNA encoding IL-6” value [6] was “dose-dependent decreases” and the “mRNA encoding TNF-α” value [7] was “dose-dependent decreases”.
Compound `CC(=O)NC1C(NC(=N)NC(=O)C(C)c2ccc(CC(C)C)cc2)C=C(C(=O)O)OC1C(O)C(O)CO` (centres unmarked) [ZA-G-Ibu (47)] has an IC50 [1] of 44 to 81 nM and an EC50 [2, 13] of 18 to 20 nM.
`CC(=O)NC1C(NC(=N)N)C=C(C(=O)O)OC1C(OC(=O)NCCCNC(=O)c1ccc2ccccc2c1O)C(O)CO` (centres unmarked) [ZA-7-HNAP-amide (8)] gave an IC50 [1] of 3.1 nM and an EC50 [2, 13] of 6.6 nM.
In the case of `CC(=O)NC1C(NC(=N)N)C=C(C(=O)O)OC1C(OC(=O)NCCCOC(=O)c1cc(N)ccc1O)C(O)CO` (centres unmarked) [ZA-7-ME (3)], the IC50 [1] is reported as 8.6 to 56.3 nM, the EC50 [5] is reported as 0.43 µM and the “protection of H1N1 virus infected mice” value [3] is reported as “greater protection than ZA, CA or ME; also recorded: good activity”. For the same compound, the “survival of H5N1 infected mice (in words)” value [4] was “did not provide better protection effect than ZA”, the “mRNA encoding IL-6” value [6] was “dose-dependent decreases” and the “mRNA encoding TNF-α” value [7] was “dose-dependent decreases”. The “level of IL-6 in serum” value [8] was “lower” and the “level of IFN-γ in serum” value [9] was “lower”.
`CC(=O)N[C@H]1[C@H]([C@H](O)[C@H](O)CO)OC(C(=O)O)=C[C@@H]1N=C(N)N` [ZA, zanamivir, reference compound] gave an EC50 [2, 12] of 3.5 to 20.2 nM, an EC50 ([2]; read-out: EC50 (nM), anti-influenza activity, A/WSN/1933 (H1N1) virus, table data are ranges or single assay results) of 14 nM and an EC50 [5] of 0.68 µM. For the same compound, the “survival at day 14 / protection from virus-induced death” value [3] was 10%, the “survival of H1N1 infected mice (in words)” value [3] was “all the mice died at day 12” and the “survival of H5N1 infected mice (in words)” value [4] was “did not improve the survival rate”. The bioavailability [10] was roughly 5%.
With `O=C(/C=C/c1ccc(O)c(O)c1)O[C@@H]1C[C@](O)(C(=O)O)C[C@@H](O)[C@H]1O` [chlorogenic acid, reference compound] the “anti-influenza activity (in words)” value [2] was “inactive”.
With `Nc1ccc(O)c(C(=O)O)c1` [ME, mesalazine, reference compound] the “NA inhibitory activity (in words)” value [1] was “did not exhibit any NA inhibitory activity”, the EC50 [2, 13] was greater than 100000 nM and the “mRNA encoding IL-6” value [6] was “dose-dependent decreases”. The “mRNA encoding TNF-α” value [7] was “dose-dependent decreases”.
With `O=C(/C=C/c1ccc(O)c(O)c1)OCCCO` [3-hydroxypropyl caffeate, reference compound] the “anti-influenza activity (in words)” value [2] was “inactive”.
`CC(=O)NC1C(NC(=N)N)C=C(C(=O)OCCCOC(=O)C=Cc2ccc(O)c(O)c2)OC1C(O)C(O)CO` (centres unmarked) [ZA-1-CA (9)] gave an IC50 [1] of 2850 nM and an EC50 [2, 13] of 25 nM.
For `CC(=O)NC1C(NC(=N)N)C=C(C(=O)O)OC1C(OC(=O)NCCCOC(=O)C=Cc1ccc(O)c(O)c1)C(O)CO` (centres unmarked) [ZA-7-CA (1)], the IC50 [1] was 2.9 to 7.4 nM, the EC50 [2, 13] was 1.4 to 10.6 nM and the “potency relative to zanamivir against H5N1” value [5] was “about 13 fold”. For the same compound, the EC50 [5] was 0.05 µM, the “protection of H1N1 virus infected mice” value [3] was “greater protection than ZA, CA or ME” and the “protection of mice from influenza virus infection” value [3] was “did not show significant protection”. The “survival of H1N1 infected mice (in words)” value [3] was “all the mice died at day 12 except for those treated with conjugate 1; also recorded: all survived at day 14”, the “survival rate at day 14” value [3] was 40% and the “survival of H5N1 infected mice (in words)” value [4] was “all survived”. For the same compound, the “mRNA encoding IL-6” value [6] was “dose-dependent decreases”, the “mRNA encoding TNF-α” value [7] was “dose-dependent decreases” and the “level of IL-6 in serum” value [8] was “lower”. The “level of IFN-γ in serum” value [9] was “lower” and the “stability / enzymatic cleavage in plasma” value [11] was “released a degradation product ZA-7-HP (6)”.
With “3,4-(methylenedioxy)cinnamic acid [MCA, reference compound]” the “NA inhibitory activity (in words)” value [1] was “did not exhibit any NA inhibitory activity”, the IC50 ([1]; read-out: IC50 (nM), influenza neuraminidase inhibition) was greater than 100000 nM and the EC50 [2, 12] was greater than 100000 nM. The “mRNA encoding IL-6” value [6] was “dose-dependent decreases” and the “mRNA encoding TNF-α” value [7] was “dose-dependent decreases”.
Work on `CC(=O)NC1C(NC(=N)N)C=C(C(=O)O)OC1C(OC(=O)NCCCOC(=O)c1ccc(O)c(O)c1)C(O)CO` (centres unmarked) [ZA-7-DHBA (5)] yielded an IC50 [1] of 2.9 nM and an EC50 [2, 13] of 53 nM.
With `CC(=O)NC1C(NC(=N)N)C=C(C(=O)O)OC1C(OC(=O)NCCCOC(=O)C=Cc1ccc2c(c1)OCO2)C(O)CO` (centres unmarked) [ZA-7-MCA (2)] the IC50 [1] was 5.4 to 7.9 nM.
In the case of `CC(C)(C)OC(=O)NCCCOC(=O)C=Cc1ccc(O)c(O)c1` [3-(tert-butoxyamido)propyl caffeate, reference compound], the “anti-influenza activity (in words)” value [2] is reported as “inactive”.
In the case of `CC(=O)NC1C(N=C(N)N)C=C(C(=O)OCCCOC(=O)c2ccc3ccccc3c2O)OC1C(O)C(O)CO` (centres unmarked) [ZA-1-HNAP (12)], the IC50 [1] is reported as 590 nM and the EC50 [2, 13] is reported as 48 nM.
`CC(=O)NC1C(NC(=N)N)C=C(C(=O)OCCCOC(=O)c2cc(N)ccc2O)OC1C(O)C(O)CO` (centres unmarked) [ZA-1-ME (11)] gave an IC50 [1] of 996 nM and an EC50 [2, 13] of 16 nM.
